Bounds are passed on as bounds.

IC50 data for eight compounds are collected here from patent publication US20090099186A1, “INHIBITORS OF VIRAL REPLICATION” (priority 2005, published 2009).

The assay addresses T1, full-length NS3 (1-631) protein (HCV NS3 helicase) (Hepatitis C virus genotype 1a, UniProt P27958).
T1 construct: Recombinant, purified, full-length NS3 (1-631) protein
In words: HCV Helicase TR-FRET Unwinding Assay. The class given is biochemical. On the procedure:
HCV Helicase TR-FRET Unwinding Assay
Compound potency was assessed by determining the ability of the compound to inhibit DNA unwinding in an in vitro homogeneous time-resolved fluorescence quench assay. The helicase substrate (Perkin Elmer, TruPoint Helicase Substrate) consisted of partially double-stranded DNA, with one oligonucleotide strand labeled with a fluorescent europium chelate and the other strand labeled with the QSY™ 7 quencher. In the presence of helicase and ATP, this DNA is unwound and a large increase in fluorescence is observed. An excess of an unlabeled oligonucleotide (also from Perkin Elmer, TruPoint Helicase Capture Strand) that is complementary to the quencher strand was included in the assay to prevent reannealing of the europium and QSY-labeled strands.
The assay buffer consisted of 25 mM MOPS (pH 7.0), 500 μM MgCl2, and 0.005% (v/v) Triton X-100, with DMSO being present at a final concentration of 2% (v/v). Recombinant, purified, full-length NS3 (1-631) protein was included in these assays at a final concentration of 2.5 nM. Compound was incubated with NS3 protein for 5 minutes in a 384-well white Proxiplate™ (Perkin Elmer) prior to the addition of TruPoint Helicase Substrate (4 nM final concentration), TruPoint Helicase Capture Strand (15 nM final concentration), and ATP (100 μM final concentration). The final reaction volume was 20 μL. Immediately after the addition of the substrates and capture strand, the initial rates of the unwinding reactions were determined at room temperature via an Envision (Perkin Elmer) plate reader. The rates of reactions containing test compound were compared to those lacking test compound in order to evaluate compound potency. IC50 values were determined using the curve-fitting software XLfit (IDBS).
Background: Time-resolved FRET reads energy transfer from a long-lived donor to a nearby acceptor.

Where [1] appears, read: Table 4, inhibition of DNA unwinding, 2.5 nM NS3, 100 μM ATP.
The mark [2] stands for this setting: second TR-FRET IC50 column (c2) of Table 4, same head as the first, inhibition of DNA unwinding.

T1 sequence (P27958 1027-1657 T1100M/T1173A/K1247Q/A1303G/S1327L/G1556E/R1608W): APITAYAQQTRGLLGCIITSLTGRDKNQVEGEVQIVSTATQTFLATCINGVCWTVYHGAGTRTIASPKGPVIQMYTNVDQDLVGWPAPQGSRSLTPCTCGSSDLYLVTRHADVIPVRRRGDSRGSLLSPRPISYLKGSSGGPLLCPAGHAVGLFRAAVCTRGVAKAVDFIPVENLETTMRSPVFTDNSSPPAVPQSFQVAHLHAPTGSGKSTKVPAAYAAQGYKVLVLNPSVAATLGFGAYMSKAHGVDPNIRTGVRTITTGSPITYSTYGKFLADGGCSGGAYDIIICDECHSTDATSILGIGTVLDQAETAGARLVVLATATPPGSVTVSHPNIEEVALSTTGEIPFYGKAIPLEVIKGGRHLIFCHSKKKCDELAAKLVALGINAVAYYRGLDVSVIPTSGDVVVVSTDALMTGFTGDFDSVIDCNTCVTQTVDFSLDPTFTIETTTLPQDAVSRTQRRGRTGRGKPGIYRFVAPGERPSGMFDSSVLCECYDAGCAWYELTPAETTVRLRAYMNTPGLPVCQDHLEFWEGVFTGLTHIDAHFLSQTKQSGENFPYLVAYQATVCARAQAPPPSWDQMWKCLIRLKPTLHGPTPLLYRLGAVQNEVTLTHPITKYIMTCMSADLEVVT

`O=C(/C=C/c1ccccc1Cl)Nc1ccccc1` [Example 35, (E)-3-(2-chlorophenyl)-N-phenylacrylamide]: the 50% inhibitory concentration (IC50) – broadly, the concentration that gives 50% inhibition – under setting [1] fell in the range of 10 to 50 µM and the IC50 under setting [2] lay within 10 to 50 µM.

Consider `CCN(CC)C(=O)/C=C/c1cc(C)c(Sc2ccc(F)cc2)cc1Cl` [Example 18, (E)-3-(2-chloro-4-(4-fluorophenylthio)-5-methylphenyl)-N,N-diethylacrylamide], for which the IC50 reads like this: under setting [1], 10 to 50 µM; under setting [2], 10 to 50 µM.

`CN(C)c1ccc(/C=C/C(=O)N2CCN(C(=O)c3ccoc3)CC2)c(Cl)c1` [Example 12, (E)-3-(2-chloro-4-(dimethylamino)phenyl)-1-(4-(furan-3-carbonyl)piperazin-1-yl)prop-2-en-1-one] gave an IC50 under setting [1] of 10 to 50 µM and an IC50 under setting [2] of 10 to 50 µM.

In the case of `Cc1cc(/C=C/C(=O)N2CCOCC2)c(Cl)cc1Sc1ccc(F)cc1` [Example 23, (E)-3-(2-chloro-4-(4-fluorophenylthio)-5-methylphenyl)-1-morpholinoprop-2-en-1-one], the IC50 was in the range of 10 to 50 µM under setting [1] and 10 to 50 µM under setting [2].

In the case of `O=C(/C=C/c1ccc(Sc2ccc(F)cc2)cc1Cl)N1CCN(C(=O)c2ccoc2)CC1` [Example 1B, (E)-3-(2-chloro-4-(4-fluorophenylthio)phenyl)-1-(4-(furan-3-carbonyl)piperazin-1-yl)prop-2-en-1-one], the IC50 lay in the range of 10 to 50 µM under setting [1] and 10 to 50 µM under setting [2].

`O=C(/C=C/c1ccccc1Cl)N1Cc2ccccc2C1` [Example 34, (E)-3-(2-chlorophenyl)-1-(isoindolin-2-yl)prop-2-en-1-one] had an IC50 under setting [1] of 10 to 50 µM and an IC50 under setting [2] of 10 to 50 µM.

Regarding `O=C(O)C1CCN(C(=O)/C=C/c2ccc(Sc3ccc(F)cc3)cc2C(F)(F)F)CC1` [Example 31B, (E)-1-(3-(4-(4-fluorophenylthio)-2-(trifluoromethyl)phenyl)acryloyl)piperidine-4-carboxylic acid], the IC50 was in the range of 10 to 50 µM under setting [1] and 10 to 50 µM under setting [2].

With `O=C(/C=C/c1ccc(Sc2ccc(F)cc2)cc1Cl)N1CCCCC1` [Example 2, (E)-3-(2-chloro-4-(4-fluorophenylthio)phenyl)-1-(piperidin-1-yl)prop-2-en-1-one], the IC50 was less than 10 µM under setting [1] and less than 10 µM under setting [2].
